One experiment deals with T1, FKBP12 (Homo sapiens, UniProt P62942).
T1 construct: the cells used were MCF7 WT; endogenous in cells; host or cells: MCF7 WT
As to the kind of experiment: FKBP12 degradation in MCF7 breast cancer cell line. The format is cell-based. The settings on record: MCF7 WT; 3 μM; 2, 6, 16 and 24 hours. An excerpt: (§1) A dimerization assay was used to detect the RPN13 and BRD4 dimerization by RAJQ9 (FIG. 40A). […] New compounds were synthesized in the series using the same conditions as RAJQ9 synthesis (See FIG. 26). It was confirmed in the BRD4 assay that the exemplary BRD4 degrader compounds (RAJQ14, RAJQ14-ester) bind to BRD4 (FIG. 44). It was observed that Myc was lost with BRD4 degraders in the MCF7 breast cancer cell line (FIG. 45). For the results shown in FIG. 45, the cells used were MCF7 WT, the exemplary BRD4 degrader compound was RAJQ14 (at 3 μM concentration), and the time points shown in the assay were 2 hours, 6 hours, 16 hours, and 24 hours. […] For the results shown in FIG. 46, the cells used were MCF7 WT, the drug was the exemplary FKBP12 degrader RAFKBP4 (at 3 μM concentration), and the time points shown in the assay were 2 hours, 6 hours, 16 hours, and 24 hours.

The target in the next experiment is RPN13 and BRD4 (Homo sapiens, UniProt O60885+Q16186). The experiment in a line: Dimerization assay of RPN13 and BRD4. The format is binding. The settings on record: indicated concentrations.
Text: as §1

The values below come from patent publication US11802132B2, “Small molecules for inducing selective protein degradation and uses thereof” (DANA-FARBER CANCER INSTITUTE, INC., priority 2018, dated 2023).

“Also recorded” adds a separate entry of the source.

Sequence of RPN13 and BRD4 (Q16186 whole entry, other chains not shown): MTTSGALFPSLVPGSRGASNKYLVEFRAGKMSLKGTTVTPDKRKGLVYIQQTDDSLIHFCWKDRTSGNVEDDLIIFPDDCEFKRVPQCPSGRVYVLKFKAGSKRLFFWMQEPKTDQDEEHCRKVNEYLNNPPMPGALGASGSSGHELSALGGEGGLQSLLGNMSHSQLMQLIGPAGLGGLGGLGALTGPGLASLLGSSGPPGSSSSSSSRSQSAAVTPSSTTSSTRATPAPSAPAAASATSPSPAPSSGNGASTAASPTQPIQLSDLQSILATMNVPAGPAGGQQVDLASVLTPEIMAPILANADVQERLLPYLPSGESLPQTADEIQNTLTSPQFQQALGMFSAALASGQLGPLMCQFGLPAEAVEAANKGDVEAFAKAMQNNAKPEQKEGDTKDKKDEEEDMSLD
T1 sequence (P62942 whole entry): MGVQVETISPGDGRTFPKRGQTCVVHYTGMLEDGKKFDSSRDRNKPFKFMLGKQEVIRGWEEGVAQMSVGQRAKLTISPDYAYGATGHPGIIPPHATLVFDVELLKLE

With `CC[C@H](C(=O)N1CCCC[C@H]1C(=O)OC(CCc1ccc(OC)c(OC)c1)c1cccc(OCC(=O)NCCOCCOCCOCCC(=O)NCCOCCN[C@@H](Cc2ccccc2)C(=O)N2C/C(=C\c3ccc(Cl)c(Cl)c3)C(=O)/C(=C/c3ccc(Cl)c(Cl)c3)C2)c1)c1cc(OC)c(OC)c(OC)c1` (some centres unmarked) [RAFKBP4], on FKBP12, the “FKBP12 degradation in MCF7 cells” value is reported as “FKBP12 degradation”.
Consider `Cc1sc2c(c1C)C(c1ccc(Cl)cc1)=N[C@@H](CC(=O)NCCN1CCN(CCCCCCOc3ccc(C[C@H](N)C(=O)N4C/C(=C\c5ccc(Cl)c(Cl)c5)C(=O)/C(=C/c5ccc(Cl)c(Cl)c5)C4)cc3)CC1)c1nnc(C)n1-2` [RAJQ9], for which, on RPN13 and BRD4, the “RPN13 and BRD4 dimerization” value was “can bring these two proteins (RPN13 and BRD4) together; also recorded: can dimerize these two proteins together”.
